Measurements taken from publication PMC9484092, “Three novel leaderless bacteriocins have antimicrobial activity against gram-positive bacteria to serve as promising food biopreservative” (Microbial Cell Factories, 2022).
No end group written: not given here. *: point of attachment. For = O=C*

Experiments:
[1] = tested on: Lysinibacillus fusiformis ZZY15-1; type: cell-based; conditions: 2 h
Method: (§1) Antibacterial activity against various indicator strains were determined by the agar well diffusion method. Briefly, each of the indicator strains (10^6 CFU/mL) was spread on a LB agar plate (45 °C) with wells (diameter = 6 mm). Then, 50 μL bacteriocin solution was added to the wells. The plate was kept at 4 °C for 2 h and subsequently incubated at a temperature suitable for the growth of the indicator strains for 12 h, followed by the measurement of inhibition zone to assess the antimicrobial activity.
(§2) The minimum inhibitory concentrations (MICs) of the bacteriocins against various indicator strains were determined by a previously described method. Briefly, the antimicrobial activities of different final concentrations bacteriocin solutions were measured by the agar well diffusion method described above. The MIC was defined at the lowest concentration of samples that could form a clear zone of inhibition.

[2] = tested on: Listeria monocytogenes LM201; type: cell-based; conditions: LM201, 2 h
Method: as §1, §2

Bacillus subtilis Bsn5 = type: cell-based; conditions: Bsn5, 2 h
Method: as §1, §2

[3] = tested on: Listeria monocytogenes LM605; type: cell-based; conditions: LM605, 2 h
Method: as §1, §2

Rhodococcus sp. ZCH08 = type: cell-based; conditions: 2 h
Method: as §1, §2

Bacillus firmus DS-1 = type: cell-based; conditions: 2 h
Method: as §1, §2

Bacillus pumilus SCG1 = type: cell-based; conditions: 2 h
Method: as §1, §2

Bacillus subtilis 168 = type: cell-based; conditions: 168, 2 h
Method: as §1, §2

Bacillus siamensis HCX05 = type: cell-based; conditions: 2 h
Method: as §1, §2

[4] = tested on: Glutamicibacter arilaitensis HCX33; type: cell-based; conditions: 2 h
Method: as §1, §2

[5] = tested on: Bacillus thuringiensis BMB171; type: cell-based; conditions: 2 h
Method: as §1, §2

[6] = tested on: Staphylococcus aureus ATCC 43300; type: cell-based; conditions: ATCC 43300, 2 h
Method: as §1, §2

Bacillus cereus UW85 = type: cell-based; conditions: UW85, 2 h
Method: as §1, §2

[7] = tested on: Bacillus cereus ATCC 14579; type: cell-based; conditions: ATCC 14579, 12 h
Method: as §1, §2

[8] = tested on: Staphylococcus succinus SYY04; type: cell-based; conditions: 2 h
Method: as §1, §2

Bacillus simplex SYY08 = type: cell-based; conditions: 2 h
Method: as §1, §2

[9] = tested on: Bacillus thuringiensis P86; assay: MIC, agar well diffusion; type: cell-based; conditions: Bacillus thuringiensis P86 (thucin A1 producer strain), LB, lowest concentration forming a clear zone, highest concentration 60 μM
Method: as §1, §2

proteinase K = proteinase K (Parengyodontium album, UniProt P06873); assay: Protease stability, residual antimicrobial activity; type: in vitro ADME; conditions: 4× MIC mixed 1:1 (v/v) with proteinase K 1 mg/mL (≥ 40 U/mg), 37 °C, 2 h; agar well diffusion, B. cereus ATCC 14579; triplicate
Method: as §1
Nisin A was commercial nisin A (Sigma-Aldrich, Shanghai, China) purified by HPLC as described above. The purity of nisin A and thucin A1 was all greater than 95% based on the ratio of absorption peak area at 210 nm. The stability assay was performed by previously described method with some modifications. To compare the pH stability of thucin A1 and nisin A, the bacteriocin solutions (1× , 2× , 4× , 8× MIC) were adjusted to pH 2.0, 3.0, 4.0, 5.0, 6.0, 7.0, 8.0, 9.0, 10.0, 11.0 and 12.0 with 0.5 M NaOH or 0.5 M HCl solution, followed by incubation at 37 °C for 4 h. The residual antimicrobial activity was tested after neutralizing the sample to pH 6.0. […] The indicator strain used in this experiment was B. cereus ATCC 14579 and the antimicrobial activity was determined with the agar well diffusion method as described above. […]

Sequence of proteinase K (P06873 106-384): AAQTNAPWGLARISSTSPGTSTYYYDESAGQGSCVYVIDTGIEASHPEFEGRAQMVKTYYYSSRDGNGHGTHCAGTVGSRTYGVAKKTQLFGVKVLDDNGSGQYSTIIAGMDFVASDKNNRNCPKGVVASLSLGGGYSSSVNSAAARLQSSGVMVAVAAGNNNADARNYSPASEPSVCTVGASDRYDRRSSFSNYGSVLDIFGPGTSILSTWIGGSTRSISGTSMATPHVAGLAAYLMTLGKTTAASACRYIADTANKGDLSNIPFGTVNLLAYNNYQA

Question: Which MIC [1] does the source give for “For-MIAFLRIVAQLGARAARWAWANKDRVLGWIRDGMAIDWIINKINDMVS [Thucin A1]” here?
Answer: 7.5 µM

Question: And the MIC [2]?
Answer: 0.47 µM

Question: And the MIC (Bacillus subtilis Bsn5)?
Answer: 3.75 µM

Question: And the MIC [3]?
Answer: 0.47 µM

Question: And the MIC (Rhodococcus sp. ZCH08)?
Answer: 15 µM

Question: And the MIC (Bacillus firmus DS-1)?
Answer: 3.75 µM

Question: And the MIC (Bacillus pumilus SCG1)?
Answer: 3.75 µM

Question: And the MIC (Bacillus subtilis 168)?
Answer: 3.75 µM

Question: What about the MIC (Bacillus siamensis HCX05) of the same substance?
Answer: 3.75 µM

Question: What about the MIC [4] of the same substance?
Answer: 7.5 µM

Question: And the MIC [5]?
Answer: 1.88 µM

Question: What about the MIC [6] of the same substance?
Answer: 15 µM

Question: What about the MIC (Bacillus cereus UW85) of the same substance?
Answer: 1.88 µM

Question: What about the MIC [7] of the same substance?
Answer: 1.88 µM

Question: What about the MIC [8] of the same substance?
Answer: 15 µM

Question: And the MIC (Bacillus simplex SYY08)?
Answer: 1.88 µM

Question: And the MIC [9]?
Answer: 7.5 µM

Question: What about the “residual antimicrobial activity after digestion with proteinase K” value (proteinase K) of the same substance?
Answer: completely lost its antimicrobial activity
